From PMC9967564, “Identification of Bioactive Peptides from a Laminaria digitata Protein Hydrolysate Using In Silico and In Vitro Methods to Identify Angiotensin-1-Converting Enzyme (ACE-1) Inhibitory Peptides” (Marine Drugs, 2023)

Assays:
ACE-II = tested on: ACE-II; design: method as in PMID 24131339; details: negative control in studies on marine cryptides; ref [49]; read-out: IC50 for ACE-II inhibition; cited from earlier work
ACE-1 = molecular target: T1, ACE-1 (Homo sapiens, UniProt P12821); assay type: biochemical
T1 construct: purchased Cambridge BioSciences (Cambridge, UK)
T1 sequence (P12821 30-1306): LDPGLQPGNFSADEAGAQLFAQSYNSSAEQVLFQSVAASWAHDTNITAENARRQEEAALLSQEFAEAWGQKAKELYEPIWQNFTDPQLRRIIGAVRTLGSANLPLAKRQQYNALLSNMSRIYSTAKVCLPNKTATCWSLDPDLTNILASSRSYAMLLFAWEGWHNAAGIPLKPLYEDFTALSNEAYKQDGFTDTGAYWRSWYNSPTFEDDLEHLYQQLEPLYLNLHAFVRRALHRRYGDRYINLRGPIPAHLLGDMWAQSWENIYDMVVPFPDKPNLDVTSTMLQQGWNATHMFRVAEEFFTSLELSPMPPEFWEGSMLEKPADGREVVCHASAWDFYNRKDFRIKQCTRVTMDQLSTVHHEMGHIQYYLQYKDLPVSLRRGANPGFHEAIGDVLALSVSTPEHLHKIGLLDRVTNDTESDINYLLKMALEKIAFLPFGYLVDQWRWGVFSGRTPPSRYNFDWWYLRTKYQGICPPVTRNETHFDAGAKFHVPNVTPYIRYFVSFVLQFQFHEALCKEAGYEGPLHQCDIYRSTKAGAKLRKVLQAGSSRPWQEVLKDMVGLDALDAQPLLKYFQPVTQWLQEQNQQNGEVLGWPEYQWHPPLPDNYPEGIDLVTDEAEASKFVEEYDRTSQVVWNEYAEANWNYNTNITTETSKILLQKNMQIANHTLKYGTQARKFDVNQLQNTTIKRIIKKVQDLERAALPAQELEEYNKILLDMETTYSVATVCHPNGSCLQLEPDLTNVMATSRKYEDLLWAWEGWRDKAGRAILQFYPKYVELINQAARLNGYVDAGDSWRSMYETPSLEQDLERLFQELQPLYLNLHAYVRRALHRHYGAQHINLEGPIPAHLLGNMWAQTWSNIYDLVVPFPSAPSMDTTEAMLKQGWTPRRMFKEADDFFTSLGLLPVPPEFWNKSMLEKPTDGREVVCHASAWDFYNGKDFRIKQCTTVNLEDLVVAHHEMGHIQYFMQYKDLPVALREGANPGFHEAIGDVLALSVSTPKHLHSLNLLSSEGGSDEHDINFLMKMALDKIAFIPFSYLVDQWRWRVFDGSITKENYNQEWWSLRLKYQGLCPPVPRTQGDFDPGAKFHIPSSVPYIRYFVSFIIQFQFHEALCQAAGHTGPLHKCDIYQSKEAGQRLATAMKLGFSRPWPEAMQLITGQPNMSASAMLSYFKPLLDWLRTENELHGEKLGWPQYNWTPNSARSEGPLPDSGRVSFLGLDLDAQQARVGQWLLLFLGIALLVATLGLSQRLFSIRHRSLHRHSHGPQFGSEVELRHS

| Compound | IC50 (ACE-II) [µM] | ACE-1 inhibition (ACE-1) [%] |
| --- | --- | --- |
| CCCCc1nc(Cl)c(CO)n1Cc1ccc(-c2ccccc2-c2nn[nH]n2)cc1 [Losartan] | 17.1 to 146 |  |
| YIHNNPAKGGLF |  | 91 |
